Assay results reported in patent US5081114A, “Steroids” (Roussel Uclaf, priority 1989, dated 1992).

Biological target: T1, aromatase (Homo sapiens, UniProt P11511)
T1 construct: This supernatant was subjected to an ultracentrifugation stage for 90 minutes at 105,000 g to obtain the microsomal deposit; from tissue; host or cells: human placenta, microsomes
T1 sequence (P11511 1-503): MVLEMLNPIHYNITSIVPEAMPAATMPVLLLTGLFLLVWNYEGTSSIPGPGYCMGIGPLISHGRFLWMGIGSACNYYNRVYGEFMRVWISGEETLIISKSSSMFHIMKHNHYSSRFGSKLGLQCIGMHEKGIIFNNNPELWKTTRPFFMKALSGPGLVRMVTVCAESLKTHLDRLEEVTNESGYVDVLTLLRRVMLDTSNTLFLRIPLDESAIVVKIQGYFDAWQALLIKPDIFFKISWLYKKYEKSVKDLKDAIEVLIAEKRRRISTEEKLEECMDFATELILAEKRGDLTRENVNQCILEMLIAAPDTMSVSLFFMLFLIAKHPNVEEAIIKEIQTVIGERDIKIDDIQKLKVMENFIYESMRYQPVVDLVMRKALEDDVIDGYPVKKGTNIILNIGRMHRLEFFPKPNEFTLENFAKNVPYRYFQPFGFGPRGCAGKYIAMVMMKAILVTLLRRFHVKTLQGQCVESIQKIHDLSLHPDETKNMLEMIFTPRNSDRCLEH
Assay: Inhibition of aromatase in placental microsomes (measurement of the CI50)
Assay type: biochemical
Settings: human placental microsomes (25 microgramms of proteins per test); 60 nM Androstenedione with 1β-2β-(H^3)-Androstenedione; NADPH; pH=7.2; 37° C., 10 minutes; tritiated water release; read-out: CI50 (concentration of the inhibitor necessary to reduce the enzymatic activity by 50%)
Protocol: Inhibition dependent on the concentration (measurement of the CI50 =concentration of the inhibitor necessary to reduce the enzymatic activity by 50%).
Human placentas were used which were washed one hour at most after delivery, then perfused with physiological serum (5 liters) via the umbilical vein, then deep-frozen at -40° C.
1) Obtaining the placental microsomes
The placentas were thawed out at 4° C., then homogenized (1:3) in a 10 mM phosphate buffer, pH=7.0 containing 100 milimoles of potassium chloride (KCl), 10 millimoles of dithiothreitol (DTT), 10 millimoles of ethylenediaminetetra-acetic acid (EDTA), 40 millimoles of nicotinamide and 250 millimoles of sucrose. The homogenates were then subjected to different phases of centrifugation until a "9000 g" supernatant was obtained (corresponding to cytosol and to endosplasmic reticulum). […] The protein concentration of the microsomal suspension was determined by the BRADFORD method [BRADFORD, Anal. Biochem., Voml. […]
Then the enzymatic reaction was very rapidly initiated by the addition of 10 microliters of reduced nicotinamide adenine dinucleotide phosphate (NADPH) solubilized in water. […] After centrifugation, and for each tube, 100 microliters of supernatant was removed and counted in the presence of a scintillating liquid. […]

## CC12CC=C3C(CCC4=CC(=O)CCC43CC=O)C1CCC2=O (stereo not shown) [Example 3, ^4,9(11) -androstadiene-3,17-dione-19-carboxaldehyde]
  IC50: 0.085 µM
